We go through one molecule from PubChem BioAssay (NCI).

Molecules are shown by their SMILES.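 Protocol summary: plate cells (96-well), add compound at 5 concentrations, incubate 48 h, interpolate endpoints linearly. Here, GI50 denotes the concentration required for 50% inhibition of growth. The concentration for full growth arrest is given as TGI.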

Among the test systems are PC-3 prostate; IGROV1 ovarian; HCT-15 colon; SNB-19 CNS; OVCAR-4 ovarian; SNB-75 CNS; COLO 205 colon; UACC-62 melanoma; HCT-116 colon; RPMI-8226 leukemia.
Experiment in all cases: growth of human tumour cells (NCI), 48 h

Consider `C=CC[Se]C(=O)Cc1c(C)n(C(=O)c2ccc(Cl)cc2)c2ccc(OC)cc12`, for which the GI50 in the assay with PC-3 prostate is 1.26 µM; in the assay with IGROV1 ovarian it was 1.88 µM; in the assay with HCT-15 colon, 1.84 µM; in the assay with SNB-19 CNS it was 0.657 µM; in the assay with OVCAR-4 ovarian it was 1.69 µM; in the assay with SNB-75 CNS it was 1.48 µM. Besides, the GI50 in the assay with COLO 205 colon was 2.14 µM; in the assay on UACC-62 melanoma it was 1.74 µM; with HCT-116 colon, 1.76 µM; with RPMI-8226 leukemia, 2.28 µM. The TGI is 2.8 µM in the assay with PC-3 prostate; 3.75 µM with IGROV1 ovarian; 3.87 µM in the assay on HCT-15 colon; 1.99 µM in the assay on SNB-19 CNS; 3.07 µM with OVCAR-4 ovarian; 2.81 µM with SNB-75 CNS. Further, the TGI with COLO 205 colon amounted to 4.38 µM; in the assay with UACC-62 melanoma, 3.18 µM; in the assay on HCT-116 colon it was 3.57 µM; with RPMI-8226 leukemia, 5.86 µM.
